US8357678B2, “Chair ruthenium complexes and their use as anticancer agents” (Guangdong Pharmaceutical University, priority 2007, dated 2013)

Key:
Test in all cases: MTT assay, inhibitory activity against growth of cancer cells
Format in all cases: cell-based
[1] = tested on: Human lung adenocarcinoma epithelial cell line A-549; settings: Dosage 5 μg/ml, 72 h incubation
Description: (§1) The inhibitory activity of these chair ruthenium(II) complexes have been evaluated by MTT assay by using 5-fluorouracil (5-Fu) as positive control. Human hepatocarcinoma cell line Bel-7402, human intestinal adenocarcinoma cell line HCT-8 and Human lung adenocarcinoma epithelial cell line A-549 were supplied by the Institute of Materia Medica, Chinese Academy of Medical Sciences & Peking Union Medical College. The determination of the cytotoxicity (dark toxicity) of the compound was carried out in parallel with the phototoxicity determination following the same procedure, with the exclusion of the irradiation.
(§2) General method: Cells were diluted to 5000/ml by PRMI1640 minimal essential medium with 10% fetal calf serum (FCS), plated at 100 μl cells per well in a 96-well Corning microtiter plate, and incubated at 37° C. with 5% CO2 for 24 h. After cell was covered a single layer, drugs (10 μl) was added, and PRMI1640 minimal essential medium was supplied to make the total volume to 200 μl. After incubated for another 72 h at 37° C., 5% CO2, the medium was removed and freshly prepared MTT dissolved in DMSO (200 μl) was added, and the OD value was recorded on ELISA Reader at 544 nm. The inhibitory activity of ruthenium complexes was calculated according to equation: Inhibitory activity(%)=([…])/(ODcontrol−ODblank)×100%.

[2] = tested on: human hepatocarcinoma cell line Bel-7402; settings: 72 h incubation
Description: as §1, §2

[3] = tested on: human intestinal adenocarcinoma cell line HCT-8; settings: 72 h incubation
Description: as §1, §2

Row | Molecule | Inhibitory activity (%) A-549 [1] [%] | Inhibitory activity (%) BEL-7402 ([2]; Dosage 5 μg/ml) [%] | Inhibitory activity (%) BEL-7402 ([2]; Dosage 50 μg/ml) [%] | Inhibitory activity (%) HCT-8 ([3]; Dosage 5 μg/ml) [%] | Inhibitory activity (%) HCT-8 ([3]; Dosage 50 μg/ml) [%]
1 | FC(F)(F)c1ccccc1-c1nc2c3ccc[n+]4c3c3c(ccc[n+]3[Ru-4]435([n+]4ccccc4-c4cccc[n+]43)[n+]3ccccc3-c3cccc[n+]35)c2[nH]1.F[P-](F)(F)(F)(F)F.F[P-](F)(F)(F)(F)F [Δ-1, Δ-[Ru(bpy)2(tFPIP)](PF6)2] | 62.0 | 85.0 | 88.3 | 81.6 | 86.2
2 | F[P-](F)(F)(F)(F)F.F[P-](F)(F)(F)(F)F.c1cc[n+]2c(c1)-c1cccc[n+]1[Ru-4]213([n+]2ccccc2-c2cccc[n+]21)[n+]1ccccc1-c1[nH]c2cc4ccccc4cc2[n+]13 [Δ-4, Δ-[Ru(bpy)2(PYNI)](PF6)2] | −8.2 | 2.8 | 36.0 | 1.8 | 38.6
3 | FC(F)(F)c1ccccc1-c1nc2c3ccc[n+]4c3c3c(ccc[n+]3[Ru-4]435([n+]4ccccc4-c4cccc[n+]43)[n+]3ccccc3-c3cccc[n+]35)c2[nH]1.F[P-](F)(F)(F)(F)F.F[P-](F)(F)(F)(F)F [Λ-1, Λ-[Ru(bpy)2(tFPIP)](PF6)2] | 56.4 | 85.2 | 88.8 | 83.0 | 88.9
4 | F[P-](F)(F)(F)(F)F.F[P-](F)(F)(F)(F)F.c1cc[n+]2c(c1)-c1cccc[n+]1[Ru-4]213([n+]2ccccc2-c2cccc[n+]21)[n+]1cccc2c4nc(-c5ccc6c(c5)OCCO6)[nH]c4c4ccc[n+]3c4c21 [Λ-3, Λ-[Ru(bpy)2(IPBH)](PF6)2] | −0.92 | 3.0 | 44.3 | 2.1 | 39.1
5 | F[P-](F)(F)(F)(F)F.F[P-](F)(F)(F)(F)F.c1cc[n+]2c(c1)-c1cccc[n+]1[Ru-4]213([n+]2ccccc2-c2cccc[n+]21)[n+]1ccccc1-c1[nH]c2cc4ccccc4cc2[n+]13 [Λ-4, Λ-[Ru(bpy)2(PYNI)](PF6)2] | −2.3 | 4.4 | 22.6 | 3.6 | 21.4
6 | Δ-[Ru(bpy)2(IPBP)](PF6)2 [Δ-2] | 18.5 | 9.6 | 86.8 | 13.1 | 83.4
7 | Λ-[Ru(bpy)2(IPBP)](PF6)2 [Λ-2] | −0.52 | 0.19 | 64.9 | 2.23 | 53.7
